Experimental data published in US20200017495A1, “NOVEL HETEROCYCLIC COMPOUNDS AND THEIR USE IN PREVENTING OR TREATING BACTERIAL INFECTIONS” (priority 2017, published 2020).

What was measured:
Assay in all cases: MIC of compounds alone and combined with antibacterials, broth microdilution (CLSI)
Type in all cases: cell-based
[1] = tested on: Escherichia coli (ECO) isolates
How it was run: (§1)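 Log-phase isolates were inoculated at a final 5.10^5 CFU/mL in cation-adjusted Mueller-Hinton broth and incubated 16-20 h at 35° C in ambient air. MIC was the lowest concentration preventing visible growth; for combinations, the antibacterial MIC was read at each compound concentration.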

[2] = tested on: Providencia rettgeri (PRE) isolates
How it was run: as §1

[3] = tested on: Serratia marcescens (SMA) isolates
How it was run: as §1

[4] = tested on: Enterobacter cloacae (ECL) isolates
How it was run: as §1

C=CC1=C(C(=O)O)N2C(=O)[C@@H](NC(=O)/C(=N\OCC(=O)O)c3csc(N)n3)[C@H]2SC1 [FIX, Cefixime]
<0.25 µg/mL: MIC ATB in combination ([1]; strain ECO UFR204, with AF3 @ 8 μg/mL) | MIC ATB in combination ([1]; strain ECO UFR252GO, with AF2 @ 8 μg/mL) | MIC ATB in combination ([1]; strain ECO UFR252GO, with AF3 @ 8 μg/mL) | MIC ATB in combination ([1]; strain ECO UFR255, with AF2 @ 8 μg/mL) | MIC ATB in combination ([1]; strain ECO UFR255, with AF3 @ 8 μg/mL) | MIC ATB in combination ([2]; strain PRE UFR96, with AF2 @ 8 μg/mL) | MIC ATB in combination ([2]; strain PRE UFR96, with AF3 @ 8 μg/mL) | MIC ATB in combination ([4]; ECL 190408, AF2 @ 8 μg/mL) | MIC ATB in combination ([4]; ECL 190408, AF3 @ 8 μg/mL) | MIC ATB in combination ([4]; ECL 200322, AF3 @ 8 μg/mL)
128 µg/mL: MIC ATB in combination ([4]; ECL 190408, CLA @ 4 μg/mL)
>128 µg/mL: MIC ATB in combination ([1]; strain ECO UFR204, with CLA @ 4 μg/mL) | MIC ([1]; strain ECO UFR205, genotype CTX-M-15, VIM-4, antibiotic alone) | MIC ATB in combination ([1]; strain ECO UFR205, with CLA @ 4 μg/mL) | MIC ([1]; strain ECO UFR206, genotype TEM-1, CTX-M-15, OXA-1, VIM-4, antibiotic alone) | MIC ATB in combination ([1]; strain ECO UFR206, with AF2 @ 8 μg/mL) | MIC ATB in combination ([1]; strain ECO UFR206, with AF3 @ 8 μg/mL) | MIC ATB in combination ([1]; strain ECO UFR206, with CLA @ 4 μg/mL) | MIC ([1]; strain ECO UFR207, genotype CTX-M-15) | MIC ([1]; strain ECO UFR208, genotype SHV-12) | MIC ([1]; strain ECO UFR211, genotype TEM-24) | MIC ([1]; strain ECO UFR212, genotype CMY-2) | MIC ([1]; strain ECO UFR218, genotype TEM-1, SHV-1, CTX-M-15) | MIC ([1]; strain ECO UFR252GO, genotype VIM-2, antibiotic alone) | MIC ATB in combination ([1]; strain ECO UFR252GO, with CLA @ 4 μg/mL) | MIC ([1]; strain ECO UFR255, genotype NDM-1, antibiotic alone) | MIC ATB in combination ([1]; strain ECO UFR255, with CLA @ 4 μg/mL) | MIC ATB in combination ([2]; PRE UFR99, AF2 @ 8 μg/mL) | MIC ATB in combination ([2]; PRE UFR99, AF3 @ 8 μg/mL) | MIC ATB in combination ([2]; PRE UFR99, CLA @ 4 μg/mL) | MIC ([2]; strain PRE UFR96, genotype CTX-M-15, NDM-1) | MIC ATB in combination ([2]; strain PRE UFR96, with CLA @ 4 μg/mL) | MIC ([2]; strain PRE UFR97, genotype TEM-1, NDM-1) | MIC ATB in combination ([2]; strain PRE UFR97, with AF2 @ 8 μg/mL) | MIC ATB in combination ([2]; strain PRE UFR97, with AF3 @ 8 μg/mL) | MIC ATB in combination ([2]; strain PRE UFR97, with CLA @ 4 μg/mL) | MIC ([2]; strain PRE UFR99, genotype OXA-1, OXA-181) | MIC ATB in combination ([3]; SMA UFR136, CLA @ 4 μg/mL) | MIC ([3]; strain SMA UFR134, genotype TEM-1, BES-1) | MIC ([3]; strain SMA UFR136, genotype TEM-1, SHV-12, KPC-2) | MIC ([3]; strain SMA UFR140, genotype IMP-1) | MIC ATB in combination ([3]; strain SMA UFR140, with AF2 @ 8 μg/mL) | MIC ATB in combination ([3]; strain SMA UFR140, with AF3 @ 8 μg/mL) | MIC ATB in combination ([3]; strain SMA UFR140, with CLA @ 4 μg/mL) | MIC ATB in combination ([4]; ECL 2185D, AF2 @ 8 μg/mL) | MIC ATB in combination ([4]; ECL 2185D, AF3 @ 8 μg/mL) | MIC ATB in combination ([4]; ECL 2185D, CLA @ 4 μg/mL) | MIC ATB in combination ([4]; ECL 190310, AF2 @ 8 μg/mL) | MIC ATB in combination ([4]; ECL 190310, CLA @ 4 μg/mL) | MIC ATB in combination ([4]; ECL 200138, AF2 @ 8 μg/mL) | MIC ATB in combination ([4]; ECL 200138, AF3 @ 8 μg/mL) | MIC ATB in combination ([4]; ECL 200138, CLA @ 4 μg/mL) | MIC ATB in combination ([4]; ECL 260033, AF2 @ 8 μg/mL)
0.5 µg/mL: MIC ATB in combination ([3]; SMA UFR30, AF2 @ 8 μg/mL) | MIC ATB in combination ([3]; SMA UFR134, AF2 @ 8 μg/mL) | MIC ATB in combination ([3]; SMA UFR138, CLA @ 4 μg/mL) | MIC ATB in combination ([3]; SMA UFR141, AF3 @ 8 μg/mL) | MIC ATB in combination ([3]; SMA UFR141, CLA @ 4 μg/mL) | MIC ATB in combination ([3]; SMA UFR142, AF2 @ 8 μg/mL) | MIC ([3]; strain SMA UFR137, genotype SME-1) | MIC ([3]; strain SMA UFR138, genotype SME-1) | MIC ATB in combination ([3]; strain SMA UFR238, with AF2 @ 8 μg/mL) | MIC ATB in combination ([3]; strain SMA UFR238, with AF3 @ 8 μg/mL)
1 µg/mL: MIC ATB in combination ([3]; SMA UFR30, CLA @ 4 μg/mL) | MIC ATB in combination ([3]; SMA UFR137, CLA @ 4 μg/mL) | MIC ATB in combination ([3]; SMA UFR139, AF2 @ 8 μg/mL) | MIC ATB in combination ([3]; SMA UFR142, AF3 @ 8 μg/mL) | MIC ([3]; strain SMA UFR30, genotype OXA-405) | MIC ([3]; strain SMA UFR139, genotype SME-2) | MIC ([3]; strain SMA UFR238, genotype OXA-48)
<=0.25 μg/mL: MIC ATB in combination ([1]; strain ECO UFR205, with AF2 @ 8 μg/mL) | MIC ATB in combination ([1]; strain ECO UFR205, with AF3 @ 8 μg/mL) | MIC ATB in combination ([2]; strain PRE UFR236, with AF2 @ 8 μg/mL) | MIC ATB in combination ([2]; strain PRE UFR236, with AF3 @ 8 μg/mL) | MIC ATB in combination ([3]; SMA UFR30, AF3 @ 8 μg/mL) | MIC ATB in combination ([3]; SMA UFR134, AF3 @ 8 μg/mL) | MIC ATB in combination ([3]; SMA UFR137, AF2 @ 8 μg/mL) | MIC ATB in combination ([3]; SMA UFR137, AF3 @ 8 μg/mL) | MIC ATB in combination ([3]; SMA UFR138, AF2 @ 8 μg/mL) | MIC ATB in combination ([3]; SMA UFR138, AF3 @ 8 μg/mL) | MIC ATB in combination ([3]; SMA UFR139, AF3 @ 8 μg/mL) | MIC ATB in combination ([3]; SMA UFR141, AF2 @ 8 μg/mL) | MIC ATB in combination ([3]; SMA UFR143, AF2 @ 8 μg/mL) | MIC ATB in combination ([3]; SMA UFR143, AF3 @ 8 μg/mL) | MIC ATB in combination ([3]; SMA UFR239, AF3 @ 8 μg/mL) | MIC ATB in combination ([4]; ECL 200322, AF2 @ 8 μg/mL)
512 µg/mL: MIC ([3]; strain SMA UFR143, compound alone) | MIC ([3]; strain SMA UFR143, genotype CTX-M-15, OXA-1, OXA-48)
1024 µg/mL: MIC ([1]; strain ECO UFR209, compound alone) | MIC ([1]; strain ECO UFR209, genotype TEM-1, CTX-M-15)
64 µg/mL: MIC ATB in combination ([3]; SMA UFR143, CLA @ 4 μg/mL) | MIC ([3]; strain SMA UFR135, genotype TEM-1, KPC-2) | MIC ATB in combination ([4]; ECL 190310, AF3 @ 8 μg/mL) | MIC ATB in combination ([4]; ECL 200322, CLA @ 4 μg/mL)
2 µg/mL: MIC ATB in combination ([3]; SMA UFR135, AF2 @ 8 μg/mL) | MIC ATB in combination ([3]; SMA UFR135, AF3 @ 8 μg/mL) | MIC ATB in combination ([3]; SMA UFR139, CLA @ 4 μg/mL) | MIC ATB in combination ([3]; SMA UFR142, CLA @ 4 μg/mL) | MIC ATB in combination ([3]; SMA UFR239, CLA @ 4 μg/mL) | MIC ([3]; strain SMA UFR141, genotype OXA-48) | MIC ([3]; strain SMA UFR142, genotype OXA-48) | MIC ATB in combination ([3]; strain SMA UFR238, with CLA @ 4 μg/mL) | MIC ([3]; strain SMA UFR239, genotype ESAC)
4 µg/mL: MIC ATB in combination ([3]; SMA UFR136, AF2 @ 8 μg/mL) | MIC ATB in combination ([3]; SMA UFR136, AF3 @ 8 μg/mL)
32 µg/mL: MIC ([1]; strain ECO UFR210, genotype SHV-12) | MIC ([2]; strain PRE UFR236, genotype TEM-1, OXA-48) | MIC ATB in combination ([2]; strain PRE UFR236, with CLA @ 4 μg/mL) | MIC ATB in combination ([3]; SMA UFR134, CLA @ 4 μg/mL) | MIC ATB in combination ([3]; SMA UFR135, CLA @ 4 μg/mL)
0.25 µg/mL: MIC ATB in combination ([3]; SMA UFR239, AF2 @ 8 μg/mL)
